Measured values from PubChem BioAssay AID1963426 (Molecular Pharmacology Branch, DTP, NCI, 2024).

Tested on: 186277-243-T-J2-PDC complex spheroid growth, % test/control
Assay: Anticancer human tumor 186277-243-T-J2-PDC patient-derived colon adenocarcinoma cell line growth inhibition [Asc]
Settings: for IC50: curve of first compound; for viability, T/C: stronger effect = lower value
In short: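 Stromal components (HUVEC and hMSC) are co-assembled with the cancer cells into multicellular spheroids. Drugs are then added singly or paired, at concentrations falling by half-log increments from a clinically achievable maximum, capped at 10 microM without known Cmax.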

[1] = second compound 0.1 µM, first compound 0.00316 µM
[2] = second compound 0.1 µM, first compound 0.01 µM
[3] = second compound 0.1 µM, first compound 0.0316 µM
[4] = second compound 0.1 µM, first compound 0.1 µM
[5] = second compound 0.1 µM, first compound 0.316 µM
[6] = second compound 0.1 µM, first compound 1 µM
[7] = second compound 0.316 µM, first compound 0.00316 µM
[8] = second compound 0.316 µM, first compound 0.01 µM
[9] = second compound 0.316 µM, first compound 0.0316 µM
[10] = second compound 0.316 µM, first compound 0.1 µM
[11] = second compound 0.316 µM, first compound 0.316 µM
[12] = second compound 0.316 µM, first compound 1 µM
[13] = second compound 1 µM, first compound 0.00316 µM
[14] = second compound 1 µM, first compound 0.01 µM
[15] = second compound 1 µM, first compound 0.0316 µM
[16] = second compound 1 µM, first compound 0.1 µM
[17] = second compound 1 µM, first compound 0.316 µM
[18] = second compound 1 µM, first compound 1 µM
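Further: spheroids exposed to agents for 7 days.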
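Wherever viability, T/C is given: 100% = DMSO vehicle control wells.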

`CCN1CCN(Cc2ccc(Nc3ncc(F)c(-c4cc(F)c5nc(C)n(C(C)C)c5c4)n3)nc2)CC1` + Cc1c(S(C)(=O)=O)c(-c2cc(F)cc(N3CCN(c4ccc(NS(=O)(=O)c5ccc(NC(CCN6CCC(C(=O)OCCCP(=O)(O)O)CC6)CSc6ccccc6)c(S(=O)(=O)C(F)(F)F)c5)cc4)CC3)c2)c(-c2ccc(Cl)cc2)n1C(C)C was tested, and the IC50 (second compound 0.1 µM) was greater than 1000 nM, the IC50 (second compound 0.316 µM) was greater than 1000 nM and the IC50 (second compound 1 µM) was greater than 1000 nM. The IC50 (second compound 3.16 µM) was 788 nM, the IC50 (second compound 10 µM) was 738 nM and the viability, T/C [1] was 107%. It also gave a viability, T/C [2] of 99.1%, a viability, T/C [3] of 103% and a viability, T/C [4] of 125%. It also gave a viability, T/C [5] of 123%, a viability, T/C [6] of 75.3% and a viability, T/C [7] of 95.2%. It also gave a viability, T/C [8] of 94.1%, a viability, T/C [9] of 103% and a viability, T/C [10] of 115%. The viability, T/C [11] was 114%, the viability, T/C [12] was 67.7% and the viability, T/C [13] was 86.6%. For the same molecule, the viability, T/C [14] was 99.6%, the viability, T/C [15] was 102% and the viability, T/C [16] was 120%. The viability, T/C [17] was 101%, the viability, T/C [18] was 56.7% and the viability, T/C (second compound 3.16 µM, first compound 0.00316 µM) was 96.4%. For the same molecule, the viability, T/C (second compound 3.16 µM, first compound 0.01 µM) was 89.8%, the viability, T/C (second compound 3.16 µM, first compound 0.0316 µM) was 101% and the viability, T/C (second compound 3.16 µM, first compound 0.1 µM) was 113%. For the same molecule, the viability, T/C (second compound 3.16 µM, first compound 0.316 µM) was 89.8%, the viability, T/C (second compound 3.16 µM, first compound 1 µM) was 39.6% and the viability, T/C (second compound 10 µM, first compound 0.00316 µM) was 91.3%. The viability, T/C (second compound 10 µM, first compound 0.01 µM) was 84.3%, the viability, T/C (second compound 10 µM, first compound 0.0316 µM) was 100% and the viability, T/C (second compound 10 µM, first compound 0.1 µM) was 110%. It also gave a viability, T/C (second compound 10 µM, first compound 0.316 µM) of 93.5% and a viability, T/C (second compound 10 µM, first compound 1 µM) of 34.2%.

In the case of `NC(=O)C(=Cn1cnc(-c2cc(C(F)(F)F)cc(C(F)(F)F)c2)n1)c1cncnc1` + CCN1C(C(=O)NC23CCC(C(=O)O)(CC2)CC3)C(c2cccc(Cl)c2F)C2(C(=O)Nc3cc(Cl)ccc32)C12CCCCC2, the IC50 (second compound 0.03 µM) is reported as 70.4 nM, the IC50 (second compound 0.0949 µM) is reported as 23.4 nM and the IC50 (second compound 0.3 µM) is reported as 6.95 nM. It also gave an IC50 (second compound 0.949 µM) of less than 0.949 nM, an IC50 (second compound 3 µM) of less than 0.949 nM and a viability, T/C (second compound 0.03 µM, first compound 0.000949 µM) of 111%. It also gave a viability, T/C (second compound 0.03 µM, first compound 0.003 µM) of 113%, a viability, T/C (second compound 0.03 µM, first compound 0.00949 µM) of 81.5% and a viability, T/C (second compound 0.03 µM, first compound 0.03 µM) of 60.4%. For the same molecule, the viability, T/C (second compound 0.03 µM, first compound 0.0949 µM) was 56.3%, the viability, T/C (second compound 0.03 µM, first compound 0.3 µM) was 5.86% and the viability, T/C (second compound 0.0949 µM, first compound 0.000949 µM) was 109%. For the same molecule, the viability, T/C (second compound 0.0949 µM, first compound 0.003 µM) was 83.3%, the viability, T/C (second compound 0.0949 µM, first compound 0.00949 µM) was 51.7% and the viability, T/C (second compound 0.0949 µM, first compound 0.03 µM) was 48%. It also gave a viability, T/C (second compound 0.0949 µM, first compound 0.0949 µM) of 46.1%, a viability, T/C (second compound 0.0949 µM, first compound 0.3 µM) of 2.91% and a viability, T/C (second compound 0.3 µM, first compound 0.000949 µM) of 65.2%. The viability, T/C (second compound 0.3 µM, first compound 0.003 µM) was 58.8%, the viability, T/C (second compound 0.3 µM, first compound 0.00949 µM) was 45.3% and the viability, T/C (second compound 0.3 µM, first compound 0.03 µM) was 34.1%. For the same molecule, the viability, T/C (second compound 0.3 µM, first compound 0.0949 µM) was 14%, the viability, T/C (second compound 0.3 µM, first compound 0.3 µM) was 0.39% and the viability, T/C (second compound 0.949 µM, first compound 0.000949 µM) was 44.6%. It also gave a viability, T/C (second compound 0.949 µM, first compound 0.003 µM) of 40.1%, a viability, T/C (second compound 0.949 µM, first compound 0.00949 µM) of 25.3% and a viability, T/C (second compound 0.949 µM, first compound 0.03 µM) of 7.03%. It also gave a viability, T/C (second compound 0.949 µM, first compound 0.0949 µM) of 1.37%, a viability, T/C (second compound 0.949 µM, first compound 0.3 µM) of 0.18% and a viability, T/C (second compound 3 µM, first compound 0.000949 µM) of 24.1%. The viability, T/C (second compound 3 µM, first compound 0.003 µM) was 20.6%, the viability, T/C (second compound 3 µM, first compound 0.00949 µM) was 3.76% and the viability, T/C (second compound 3 µM, first compound 0.03 µM) was 0.85%. It also gave a viability, T/C (second compound 3 µM, first compound 0.0949 µM) of 0.44% and a viability, T/C (second compound 3 µM, first compound 0.3 µM) of 0.84%.

For `CCN1CCN(Cc2ccc(Nc3ncc(F)c(-c4cc(F)c5nc(C)n(C(C)C)c5c4)n3)nc2)CC1` + CNC(C)C(=O)NC1CN(S(=O)(=O)c2cccc(S(=O)(=O)N3CCC4CCC(C(=O)NC(c5ccccc5)c5ccccc5)N4C(=O)C(NC(=O)C(C)NC)C3)c2)CCC2CCC(C(=O)NC(c3ccccc3)c3ccccc3)N2C1=O, the IC50 (second compound 0.01 µM) was greater than 1000 nM, the IC50 (second compound 0.0316 µM) was greater than 1000 nM and the IC50 (second compound 0.1 µM) was greater than 1000 nM. For the same molecule, the IC50 (second compound 0.316 µM) was greater than 1000 nM, the IC50 (second compound 1 µM) was greater than 1000 nM and the viability, T/C (second compound 0.01 µM, first compound 0.00316 µM) was 85.5%. The viability, T/C (second compound 0.01 µM, first compound 0.01 µM) was 110%, the viability, T/C (second compound 0.01 µM, first compound 0.0316 µM) was 109% and the viability, T/C (second compound 0.01 µM, first compound 0.1 µM) was 129%. For the same molecule, the viability, T/C (second compound 0.01 µM, first compound 0.316 µM) was 123%, the viability, T/C (second compound 0.01 µM, first compound 1 µM) was 114% and the viability, T/C (second compound 0.0316 µM, first compound 0.00316 µM) was 111%. For the same molecule, the viability, T/C (second compound 0.0316 µM, first compound 0.01 µM) was 90.2%, the viability, T/C (second compound 0.0316 µM, first compound 0.0316 µM) was 114% and the viability, T/C (second compound 0.0316 µM, first compound 0.1 µM) was 114%. The viability, T/C (second compound 0.0316 µM, first compound 0.316 µM) was 143%, the viability, T/C (second compound 0.0316 µM, first compound 1 µM) was 120% and the viability, T/C [1] was 112%. It also gave a viability, T/C [2] of 120%, a viability, T/C [3] of 118% and a viability, T/C [4] of 132%. It also gave a viability, T/C [5] of 143%, a viability, T/C [6] of 107% and a viability, T/C [7] of 107%. It also gave a viability, T/C [8] of 108%, a viability, T/C [9] of 126% and a viability, T/C [10] of 131%. The viability, T/C [11] was 134%, the viability, T/C [12] was 110% and the viability, T/C [13] was 120%. For the same molecule, the viability, T/C [14] was 113%, the viability, T/C [15] was 118% and the viability, T/C [16] was 138%. It also gave a viability, T/C [17] of 148% and a viability, T/C [18] of 120%.
